Test results from ChEMBL document CHEMBL1287749, “Acetazolamide-based fungal chitinase inhibitors” (Bioorg Med Chem, 2010).
The source made the active and inactive calls. The calls are words filed in the database; no cut-off is given here.

Target: T1, Endochitinase A1 (Aspergillus fumigatus) (UniProt Q873Y0)
T1 sequence (whole entry): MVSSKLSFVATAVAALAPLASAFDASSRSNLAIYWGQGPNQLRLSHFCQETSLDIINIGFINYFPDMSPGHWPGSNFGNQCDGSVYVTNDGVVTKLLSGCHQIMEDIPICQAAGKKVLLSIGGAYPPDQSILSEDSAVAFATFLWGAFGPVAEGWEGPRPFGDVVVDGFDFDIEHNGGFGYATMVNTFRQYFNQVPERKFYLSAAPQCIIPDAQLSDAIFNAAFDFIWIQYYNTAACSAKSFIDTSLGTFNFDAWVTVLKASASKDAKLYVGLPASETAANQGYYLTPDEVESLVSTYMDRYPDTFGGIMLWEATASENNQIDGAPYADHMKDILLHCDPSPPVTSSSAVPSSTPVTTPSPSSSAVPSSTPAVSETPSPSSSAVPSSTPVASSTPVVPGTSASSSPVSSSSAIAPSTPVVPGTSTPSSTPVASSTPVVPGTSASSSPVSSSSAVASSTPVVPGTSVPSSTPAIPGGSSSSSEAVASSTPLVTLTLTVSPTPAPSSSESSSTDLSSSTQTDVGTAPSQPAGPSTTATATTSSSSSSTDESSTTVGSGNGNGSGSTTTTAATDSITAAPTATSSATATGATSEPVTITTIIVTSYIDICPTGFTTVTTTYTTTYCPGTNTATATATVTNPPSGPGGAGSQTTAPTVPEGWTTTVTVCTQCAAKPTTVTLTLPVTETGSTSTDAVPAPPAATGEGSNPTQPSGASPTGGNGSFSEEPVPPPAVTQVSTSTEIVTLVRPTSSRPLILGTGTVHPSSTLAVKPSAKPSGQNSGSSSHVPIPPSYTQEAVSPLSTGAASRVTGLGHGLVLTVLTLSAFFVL
Conditions: 1 mM

SMILES: Nc1nnc(S(N)(=O)=O)s1
- inhibition: inactive
